In publication PMC12641067 (Clinical Pharmacology and Therapeutics, 2025):
Where “and” joins values, the source holds several entries; their conditions need not be identical. Equal entries are not always repeated. Structures can show the parent of a compound that is named as a salt. Where two headings read alike, the source gives them in different places. Values belong to the compound of their own block, whether it stands above or below them.

Assays:
[1] = cited from earlier work
[2] = cited from earlier work; remark: listed apart in the source
[3] = Synthesis rate of precursor bile acids and inferred GCDCA-S ksyn; parameters: species or system human
From the text: Verification of GCDCA-S ksyn estimated in this study
Literature data on the SULT2A1-mediated sulfation rate of GCDCA were not available. To evaluate the validity of GCDCA-S ksyn estimated by the POPPK model, GCDCA-S ksyn was assumed to be constrained by the synthesis rate of its precursor bile acids, and an inference was made based on the reported ksyn value of the corresponding precursors (CDCA and GCDCA).
In the absence of an inhibitor, ksyn of bile acids in the turnover model is represented by Equation 11.
Under steady-state conditions (where dC/dt=0), and given that the values of CLR of GCDCA-S and its corresponding precursors are relatively small compared to their CLh, ksyn of bile acids is expressed by Equation 12.10,11 It has been reported that the biliary excretion of bile acid sulfates is slower than that of their unsulfated forms,10,12 and assuming CLh,GCDCA-S < CLh,precursors, GCDCA-S ksyn was inferred, as […]
dt = [ksyn − (Cbile acid × CLh + Cbile acid × CLR)] × Vc (Eq.11)
ksyn = Cbile acid × CLh (Eq.12) where C (µM) is plasma concentration, ksyn (µmol/h) is the zero-order synthesis rate, CLh (L/h) is hepatic clearance, CLR (L/h) is renal clearance, VC (L) is the volume of distribution.
Table S5. GCDCA-S ksyn inferred from the ksyn of its corresponding precursors Biomarker Plasma baseline (nM) Denovo ksyn (µmol/h)
Reported value Ref Reported value Ref Notes
Biomarker Plasma baseline (nM) Inferred ksyn (µmol/h)
< 3.0 Based on information 1 […]
< 2.2 Based on information 3 aAveraged Cmean value of the baseline and control groups. bSynthesis rate of unconjugated chenodeoxycholic acid. cAveraged synthesis rate of chenodeoxycholic acid reported in six studies. dSynthesis rate of chenodeoxycholic acid-glycine.

[4] = GCDCA-S CLh and fe inferred from other reported clinical DDI studies; format: in vivo, human
Experimental: Verification of GCDCA-S fe estimated in this study
The validity of GCDCA-S CLh and renal excretion fraction (fe) estimated in this study was evaluated by incorporating the GCDCA-S mean plasma concentration profile in other reported clinical DDI studies into the developed POPPK models. In the absence of inhibitors, under steady-state conditions (where dC/dt=0), GCDCA-S ksyn is expressed as shown in Equation 13. In the presence of rifampicin, at t=Tmax (where dC/dt=0), GCDCA-S ksyn is expressed as shown in Equation 14. By solving equation 13 and 14, CLh can be derived as shown in Equation 15. The CLh and fe values inferred from data obtained in each […]
ksyn = Cbaseline × CLh + Cbaseline × CLR (Eq.13)
k = C × CLh + C × CL (Eq.14) […]
CL = CL × Cmax−Cbaseline > CL × Cmax−Cbaseline (Eq.15)
h R Cbaseline − Cmax × 1 R Cbaseline where Cbaseline (µM) is plasma baseline concentration, Cmax (µM) is maximum plasma concentration, ksyn (µmol/h) is the zero-order synthesis rate, CLh (L/h) is hepatic clearance, CLR (L/h) is renal clearance, Cu,RIF (µM) is unbound plasma concentration of rifampicin, Ki,u,OATP1B3 (µM) is unbound inhibition constant against OATP1B3 for rifampicin.
Table S6. GCDCA-S CLh and fe inferred from other reported clinical DDI studies Reported values Inferred values Ref […]
Cbaseline, plasma baseline concentration of GCDCA-S; Cmax, maximum plasma concentration of GCDCA-S; fe, fraction excreted in urine of GCDCA-S; CLh, hepatic clearance of GCDCA-S; CLR, renal clearance […]
a Average concentration from 0 to 24hours. b The CLR value reported by Willemin et al.17 was used for calculation. Even when using the reported CLR values from other studies, the corresponding increase in CLh ensures that the estimated fe value in this calculation remains unchanged.

[5] = monkey, in vivo; cited from earlier work
[6] = baseline and interaction profile after rifampicin administration; cited from earlier work
[7] = Population PK turnover model of GCDCA-S (plasma and urine data); format: in vivo, human
Experimental: (§1) Individual plasma and urine data of GCDCA‐S in healthy subjects were obtained from three clinical studies. Tatosian et al.[18] (study #1) consisted of two occasions: on both occasions, a microdose probe drug cocktail for multiple clinically relevant transporters was administered, with a single oral dose of 600 mg rifampicin co‐administered on the second occasion (n = 6; 3 males, 3 females). Willemin et al.[22] (study #2) was a two‐phase, cross‐over study with a 21‐day washout period between the two phases. […] Study #3 consists of unpublished data from the same study design as reported by Willemin et al. (n = 12; 12 males).[22]
(§2) Models were evaluated using visual predictive check (VPC) plots, goodness‐of‐fit (GOF) plots, parameter uncertainty, and changes in objective function. Model visualization and simulations were conducted in MATLAB 2024a (MathWorks, Natick, MA, USA) and Graph Pad Prism 10.2.2 (GraphPad software, La Jolla, CA, USA).
(§3) The structural model for rifampicin was based on our previous report,[33] and represents a one‐compartment model with zero‐order absorption and linear elimination.
Different functions for evaluating diurnal fluctuation (e.g., Bateman, Power function) were investigated and applied to the synthesis rate in the GCDCA‐S model.
(§4) The models for rifampicin, probenecid, and GCDCA‐S incorporated both inter‐individual variability for a number of model parameters (assuming log‐normal distribution) and residual unexplained variability (using a combination of proportional and additive error models).

[8] = Plasma baseline concentration of bile acid biomarkers in clinical studies; format: in vivo, human; settings: Study #3 (unpublished data); average concentration 0 to 24 hours, no inhibitor
Experimental: as §1
Details of the clinical studies are in Table S1 . […] Simulations were conducted in agreement with the reported study designs. The median (50th percentile) of the predicted concentrations, along with the 90% prediction interval (5th and 95th percentiles), was plotted and compared against the observed data.
Table S1. […]
Cbaseline, GCDCA-S plasma baseline concentration in the absence of inhibitors. a Plasma concentration of subjects with SLCO1B1 c.521TT genotype were used for model verification. b In both occasions, Letermovir 480mg was administered, and it has been reported that single-dose Letermovir led to small increases in GCDCA-S concentrations vs. predose levels. c Calculated based on the reported plasma AUC0-24h.

[9] = human, in vivo; cited from earlier work
OATP1B transporters = settings: in vitro; cited from earlier work
[10] = Population PK model of probenecid (plasma data); format: in vivo, human; settings: population estimate (RSE%)
Experimental: as §1, §2, §3, §4

[11] = parameters: method as in PMID 19131563, PMID 1150035, PMID 955496, PMID 34686523; settings: healthy human volunteers; cited from earlier work
[12] = averaged Cmean value of the baseline and control groups
[13] = information 2 (CDCA, average of six studies) and 3 (chenodeoxycholic acid-glycine)
[14] = final model (without sex effect), population estimate (RSE%)
[15] = model with sex effect, population estimate (RSE%)

Structure (SMILES): C[C@H](CCC(=O)O)[C@H]1CC[C@H]2[C@@H]3[C@H](O)C[C@@H]4C[C@H](O)CC[C@]4(C)[C@H]3CC[C@]12C [CDCA, chenodeoxycholic acid]
Plasma baseline [1, 12]: 510 nM | Denovo ksyn [2, 13]: 17 µmol/h | Denovo ksyn ([2]; synthesis rate of unconjugated chenodeoxycholic acid (information 1)): 18 µmol/h

Structure (SMILES): CC(CCC(=O)NCC(=O)O)C1CCC2C3C(O)CC4CC(O)CCC4(C)C3CCC12C (centres unmarked) [GCDCA, glycochenodeoxycholic acid]
Plasma baseline [1, 12]: 540 nM | Denovo ksyn [2, 13]: 14 µmol/h

Structure (SMILES): C[C@H](CCC(=O)NCC(=O)O)[C@H]1CC[C@H]2[C@@H]3[C@H](O)C[C@@H]4C[C@H](OS(=O)(=O)O)CC[C@]4(C)[C@H]3CC[C@]12C [GCDCA‐S, Glycochenodeoxycholic acid 3‐O‐sulfate]
Plasma baseline ([1]; human, in vivo): 85 nM | Inferred ksyn ([3]; based on information 1): < 3.0 µmol/h | Inferred ksyn ([3]; based on information 2): < 2.8 µmol/h | Inferred ksyn ([3]; based on information 3): < 2.2 µmol/h | fe (inferred) ([4]; from data of ref 2): < 6.6% | fe (inferred) ([4]; from data of ref 3): < 6.9% | fe (inferred) ([4]; from data of ref 4): < 3.3% | fe (inferred) ([4]; from data of ref 16): < 3.1% | fraction excreted in urine (f e) [5]: < 1% | difference in plasma concentrations, chronic kidney disease patients relative to healthy individuals [6]: no significant difference | fraction excreted in urine (f e) ([7]; estimated from POP-PK model): < 5% | V c,GCDCA–S ([7]; final model (without sex effect), fixed at value initially estimated from the POP-PK model): 4.8 L and 4.8 (FIXED) L | CL h,GCDCA–S [7, 14]: 15 (13) L/h | ksyn [7, 14]: 1.0 (18) μmol/h | biliary excretion as share of elimination ([7]; from POP-PK model): ~ 95% and > 95% | Vc, GCDCAS ([7]; model with sex effect, fixed): 4.8 L | CLR, GCDCAS [7, 15]: 0.31 (8) L/h | CLh, GCDCAS [7, 15]: 14 (13) L/h | COVSEX (fractional change in ksyn in women relative to men) [7, 15]: 0.065 (404) | ksyn [7, 15]: 1.0 (18) μmol/h | Cbaseline [8]: 87 nM | CLR [9]: 0.37 L/h

clearance ([10]; both sexes, human, plasma, oral, 500 mg): 15.8 mL/min | V PROB [10]: 17 (10) L | ka PROB ([10]; 500 mg oral approx. every 6 h): 1.1 (37) /h
Structure (SMILES): CCCN(CCC)S(=O)(=O)c1ccc(C(=O)O)cc1 [PROB, probenecid]
inhibition of OATP1B transporters (OATP1B transporters): weakly inhibits

Structure (SMILES): C[C@H](CCC(=O)O)[C@H]1CC[C@H]2[C@@H]3CC[C@@H]4C[C@H](OS(=O)(=O)O)CC[C@]4(C)[C@H]3CC[C@]12C [lithocholic acid sulfate]
fraction excreted in urine (f e) [11]: < 5%
